Assay results from patent publication US8304448B2, “Method for the treatment of metabolic disorder containing benzazole derivatives as an active ingredient” (Korea Research Institute of Bioscience and Biotechnology, priority 2006, dated 2012).

Tests used:
DGAT [1] = assay: Assay for inhibitory activity against DGAT ([14C]triacylglycerol formation, rat microsomal protein); format: biochemical; details: rat microsomal protein as enzyme source
Source text: The derivatives of Chemical Formula 1 in accordance with the present invention are found to inhibit the enzymatic activity of DGAT at a dose-dependent manner (refer to Table 2 and FIG. 1) as measured in a test in which [^14C]triacylglycerol was quantitatively analyzed after enzymatic reaction between 1,2-diacylglycerol and [^14C]palmitoyl-CoA, with microsomal proteins from rats serving as an enzyme source (refer to Example 1).
After enzymatic reaction between two substrates 1,2-diacylglycerol (Sigma, D0138) and [^14C]palmitoyl-CoA (Amersham, CFA583) with the microsomal protein of rat serving as an enzyme source in accordance with Coleman et al, Methods Enzymol., 98-103, 1992, the resulting product [^14C] triacylglycerol was measured for radioactivity. In detail, to a reaction buffer (175 mM Tris-HCl, pH 8.0, 20 μl bovine serum albumin (10 mg/ml), 100 mM MgCl2, 30 μM [^14C] palmitoyl-CoA (0.02 μCi, Amersham) and 200 μM 1,2-dioleoyl glycerol) was added 10 μl of a solution of the samples in dimethylsulfoxide (DMSO) and then 100˜200 μl of an isolated microsomal protein, followed by reaction at 25° C. for 10 min. The reaction was terminated with 1.5 ml of a mixture of 80:20:2 2-propanol:heptane:water (v:v:v). Thereafter, the [^14C] triacylglycerol thus formed was separated. In this regard, 1 ml of heptane and 0.5 ml of distilled water were added to the reaction mixture, which was then shaken. 1 ml of the supernatant thus formed was mixed with 2 ml of an alkaline ethanol solution (ethanol:0.5 N sodium hydroxide:water=50:10:40, v:v:v), followed by shaking. After being taken, 0.65 ml of the supernatant thus formed was measured for radioactivity using an LSC (liquid scintillation counter). The inhibitory activity against DGAT was calculated according to the following Mathematical Formula 1. The inhibitory effects of the benzazole derivatives on DGAT are summarized in Table 2, below while % DGAT inhibition is plotted against doses of compound 22 and 31 in FIG. 1.
T: Cpm of a test group in which a sample was added to an enzymatic buffer,
C: Cpm of a control in which no samples were added to an enzymatic buffer,
B: Cpm of a control in which a sample was added in the absence of any enzyme source.

DGAT [2] = assay: Assay for inhibitory effect on DGAT in cell (intracellular triglyceride production from [14C]acetate in HepG2 cells); format: cell-based, human; details: for Production Yield of Triglyceride (%): final level 10 μM, DMSO control given as 100
Procedure: The effect of the benzazole derivatives of Chemical Formula 1 in accordance with the present invention on DGAT was examined with HepG2 cells, hepatic cells derived from the human liver, as follows.
HepG2 cells, purchased from ATCC, were cultured in Eagle's minimum essential medium (MEM), 2 mM L-glutamine, with Earle's balanced salt solution (BSS) adjusted to contain, 1.5 g/L sodium bicarbonate, 0.1 mM non-essential amino acids and 1 mM sodium pyruvate, supplemented with 10% fetal bovine serum (FBS) and 1% antibiotics (100 U/ml penicillin and 100 µg/ml streptomycin) at 37° C. in a 5% CO2 incubator.
Intracellular DGAT activity was represented by the amount of triglycerides produced in the cultured HepG2 cells while the compounds (4, 8, 10, 22, 24, 25, 26, 39 and 31) of Chemical Formula 1 were assayed for inhibitory activity against DGAT by measuring the change in intracellular triglyceride production after the addition thereof.
Cells were plated at a density of 1×10^6 cell/ml per well into 24-well plates and incubated for 24 hours. Then, the medium was exchanged with FBS-free MEM and pre-treated with samples for 1 hour. Thereafter, 0.2 mCi of [^14C]acetate (Amersham) was added as a substrate to the cells, followed by incubation for 1 hour. The production of triglyceride was catalyzed by DGAT so that DGAT activity was determined by the amount of the triglyceride product, which could be measured by radioactivity. For use, the samples were dissolved in dimethyl sulfoxide (DMSO). In a control, triglycerides were synthesized using DMSO without any sample, with the production yield thereof given as 100.
The amount of the glyceride products synthesized was determined as follows. After completion of synthesis, the cells were suspended in PBS (phosphate-buffer-saline) to remove the substrate [^14C]acetate, whether unabsorbed into the cells or remaining unreacted, and total lipids, including triglycerides, were extracted twice for 30 min with 0.5 ml of an extraction solvent mixture (hexane:isopropanol=3:2, v:v). 1 ml of the extract was concentrated with nitrogen gas.
The total lipid residue thus formed was dissolved in an organic solvent mixture (chloroform:methanol=2:1) and loaded dropwise onto a thin layer chromatography plate (TLC; silica gel 60F254, 0.5 mm, Merck) using a mixture of 80:20:1 hexane:diethylether:acetic acid (v:v:v) as a developing solvent. After the separation of triglycerides (Rf value: 0.4) on TLC, the plate was brought into contact with an autoradiographic film for three hours, followed by image analysis (BAS-1500, Fuji Photo Film Co. Ltd.) to determine the [^14C] radioactivity of the triglycerides. The cells left after the extraction were suspended in 0.3 ml of a 0.1 N sodium hydroxide solution to measure the cellular protein concentration thereof.
The empirical values were obtained by dividing triglyceride radioactivity by protein level, with correction for experimental errors between test groups.

SPF ICR mice = assay: Acute toxicity, single oral dose of 2,000 mg/kg, mice; format: in vivo
Procedure: In addition, the compounds of the present invention were orally administered once at a dose of as high as 2,000 mg/kg into mice. In this regard, 7-week-old male SPF ICR mice (Dae Han Biolink Co. Ltd.) were acclimated to a new environment for one week and they, thus 8 weeks old, were divided into two groups of three. The test group was orally administered once with a dose of 2 g/kg of Compound 10 in a 0.5% CMC solution, while the control was administered with a 0.5% CMC (carboxymethyl cellulose) solution alone. They were monitored for death, clinical signs, change in body weight and the like for a couple of weeks. Autopsies were performed to examine the abnormality of organs.
Therefore, the compounds of the present invention exert no oral acute toxicity on mice even when administered once at a dose of up to 2,000 mg/kg.

[3] = test system: ICR mice fed a high-fat diet; assay: In vivo assay for anti-obesity activity in mice fed a high-fat diet; set-up: species or system mouse; details: high-fat diet
Procedure: Also, the derivatives of Chemical Formula 1 were tested for resistance to obesity by iterative oral administration at a dose of 10 mg/kg into ICR male mice (refer to Example 3). […] When they were administered, the levels of total triglycerides, total cholesterols, and low density lipoprotein (LDL)-cholesterol in the blood recovered to almost normal levels, with a significant increase observed in the level of high density lipoprotein (HDL)-cholesterol in the blood (refer to Tables 6 and 7 and FIGS. 3 and 4).
In order to verify the anti-obesity activity of the benzaldehyde derivatives of Chemical Formula 1 in accordance with the present invention, Compounds 22 and 31 were administered repetitively into rodents as follows.
The experimental animals were 6 week old ICR mice which were purchased from Japan SLC, Inc. via Central Lab. Animal Inc. Korea. They were acclimated to a new environment for one week before use, and fed with a foodstuff commercially available from Deyts, U.S.A. They were bred in an animal lab set at a temperature of 23±3° C. and RH 50±10% under light of 150˜300 Lux for a period of 12 hours (6 a.m.˜6 p.m.) with ventilation 10-20 times/hour. All of the 12 mice used were male, and were organized into two groups of 6. The test group was orally administered once a day at 4 p.m. with 10 mg/kg of the compound (Chemical Formula 1) in the form of a solution in biological saline for 35 days while the control was administered with biological saline only. Xenical, a commercially available lipase inhibitor, was administered orally at a dose of 10 mg/kg once a day as a positive control drug.
The animals were measured for body weight every week and sacrificed on Day 35, after which blood from the heart was sampled. Abdominal fat, epididymal fat, retroperitoneal fat and the liver were excised and weighed. Blood samples were assayed for total triglyceride, total cholesterol, HDL-cholesterol and LDL-cholesterol using respective test kits, all commercially available from Asan Pharmaceutical Co. Ltd., Korea.
For evidence of anti-obesity activity, compounds 22 and 31 were orally administered at regular intervals at a dose of 10 mg/kg into ICR male mice for a predetermined period of time with the concurrent provision of conditional diets thereto. Anatomized abdomens of the animals are given in the photographs of FIG. 2.

[4] = Day 35, 10 mg/kg oral, Mean ± SD
[5] = blood, Day 35, 10 mg/kg oral, Mean ± SD

COC(=O)c1ccc2[nH]c(COc3ccc(C45CC6CC(CC(C6)C4)C5)cc3)nc2c1 [Cpd. 4, 2-(4-adamantan-1-yl-phenoxymethyl)-1H-benzoimidazole-5-carboxylic acid methyl ester]
DGAT (% inhibition in 25 μM) (DGAT [1]): 60.43%
Production Yield of Triglyceride (%) (DGAT [2]): 72.2 ± 7.5%

COC(=O)c1ccc2[nH]c(COc3ccc(C(C)(C)C)cc3C(C)(C)C)nc2c1 [Cpd. 8, 2-(2,4-tert-butyl-phenoxymethyl)-1H-benzoimidazole-5-carboxylic acid methyl ester]
DGAT (% inhibition in 25 μM) (DGAT [1]): 37.36%
Production Yield of Triglyceride (%) (DGAT [2]): 88.5 ± 5.8%

NS(=O)(=O)c1ccc2oc(COc3ccc(Cl)cc3Cl)nc2c1 [Cpd. 10, 2-(2,4-dichloro-phenoxymethyl)-benzoxazole-5-sulfonic acid amide]
DGAT (% inhibition in 25 μM) (DGAT [1]): 17.43%
Production Yield of Triglyceride (%) (DGAT [2]): 98.7 ± 6.3%
Mortality (SPF ICR mice; single oral 2 g/kg in 0.5% CMC, No. of Dead/No of Tested): 0/3
Body Weight (g) Day 0 (SPF ICR mice; single oral 2 g/kg, Day 0, Mean ± SD): 35 ± 0.5 g
Body Weight (g) Day 1 (SPF ICR mice; single oral 2 g/kg, Day 1, Mean ± SD): 37 ± 0.5 g
Body Weight (g) Day 3 (SPF ICR mice; single oral 2 g/kg, Day 3, Mean ± SD): 37 ± 0.6 g
Body Weight (g) Day 7 (SPF ICR mice; single oral 2 g/kg, Day 7, Mean ± SD): 39 ± 1.6 g
Body Weight (g) Day 14 (SPF ICR mice; single oral 2 g/kg, Day 14, Mean ± SD): 42 ± 0.8 g

O=C(NCCN1CCCCC1)c1ccc2oc(COc3ccc(C45CC6CC(CC(C6)C4)C5)cc3)nc2c1 [Cpd. 24, 2-(4-adamantan-1-yl-phenoxymethyl)-benzoxazole-5-carboxylic acid (2-piperidin-1-yl-ethyl)-amide]
DGAT (% inhibition in 25 μM) (DGAT [1]): 52.84%
Production Yield of Triglyceride (%) (DGAT [2]): 78.5 ± 6.2%

O=C(NCCCN1CCOCC1)c1ccc2oc(COc3ccc(C45CC6CC(CC(C6)C4)C5)cc3)nc2c1 [Cpd. 25, 2-(4-adamantan-1-yl-phenoxymethyl)-benzoxazole-5-carboxylic acid (3-morpholin-4-yl-propyl)-amide]
DGAT (% inhibition in 25 μM) (DGAT [1]): 54.08%
Production Yield of Triglyceride (%) (DGAT [2]): 80.2 ± 7.8%

O=C(NCc1ccco1)c1ccc2oc(COc3ccc(Cl)cc3Cl)nc2c1 [Cpd. 26, 2-(2,4-dichloro-phenoxymethyl)-benzoxazole-5-carboxylic acid (furan-2-ylmethyl)-amide]
DGAT (% inhibition in 25 μM) (DGAT [1]): 19.75%
Production Yield of Triglyceride (%) (DGAT [2]): 91.5 ± 5.2%

CN(C)C(=O)c1ccc2nc(COc3ccc(C45CC6CC(CC(C6)C4)C5)cc3)[nH]c2c1 [Cpd. 30, 2-(4-adamantan-1-yl-phenoxymethyl)-3H-benzoimidazole-5-carboxylic acid dimethylamide]
DGAT (% inhibition in 5 μM) (DGAT [1]): 8.0%
DGAT (% inhibition in 25 μM) (DGAT [1]): 41.8%
Production Yield of Triglyceride (%) (DGAT [2]): 87.2 ± 7.4%

O=C(NCc1ccco1)c1ccc2[nH]c(COc3ccc(C45CC6CC(CC(C6)C4)C5)cc3)nc2c1 [Cpd. 31, 2-(4-adamantan-1-yl-phenoxymethyl)-1H-benzoimidazole-5-carboxylic acid (furan-2-ylmethyl)-amide]
DGAT (% inhibition in 5 μM) (DGAT [1]): 62.5%
DGAT (% inhibition in 25 μM) (DGAT [1]): 85.4%
inhibition of the biosynthesis of triglycerides (DGAT [2]; 10 μM): 42.2%
Production Yield of Triglyceride (%) (DGAT [2]): 57.8 ± 5.3%
(Tissue Weight/Body Weight) × 100 Abdominal Fat + Epididymal Fat [3, 4]: 3.16 ± 0.84
(Tissue Weight/Body Weight) × 100 Liver [3, 4]: 4.48 ± 0.33
(Tissue Weight/Body Weight) × 100 Retroperitoneal Fat [3, 4]: 0.94 ± 0.24
(Tissue Weight/Body Weight) × 100 Total Fat [3, 4]: 4.1 ± 1.03
HDL-Cholesterol [3, 5]: 21.22 ± 2.19 mg/dL
LDL-Cholesterol [3, 5]: 43.62 ± 10.06 mg/dL
Total Cholesterol [3, 5]: 73.19 ± 10.97 mg/dL
Total Triglyceride [3, 5]: 41.79 ± 9.26 mg/dL
inhibition of body weight gain ([3]; 10 mg/kg oral once a day for 35 days): 73%
Body Weight (g) (Mean ± SD) Week 0 ([3]; 10 mg/kg oral once a day, Week 0): 25.08 ± 0.99 g
Body Weight (g) (Mean ± SD) Week 1 ([3]; 10 mg/kg oral once a day, Week 1): 35.1 ± 1.99 g
Body Weight (g) (Mean ± SD) Week 2 ([3]; 10 mg/kg oral once a day, Week 2): 38.93 ± 2.33 g
Body Weight (g) (Mean ± SD) Week 3 ([3]; 10 mg/kg oral once a day, Week 3): 40.75 ± 1.75 g
Body Weight (g) (Mean ± SD) Week 4 ([3]; 10 mg/kg oral once a day, Week 4): 42.31 ± 1.57 g
Body Weight (g) (Mean ± SD) Week 5 ([3]; 10 mg/kg oral once a day, Week 5): 43.22 ± 1.41 g

O=C(NCc1ccco1)c1ccc2nc(COc3ccc(Cl)cc3Cl)[nH]c2c1 [compound 35, 2-(2,4-dichloro-phenoxymethyl)-3H-benzoimidazole-5-carboxylic acid (furan-2-ylmethyl)-amide]
DGAT (% inhibition in 25 μM) (DGAT [1]): 28.63%
